Reference: patent publication US9295259B2, “Fungicidal substituted 1-{2-[2-halo-4-(4-halogen-phenoxy)-phenyl]-2-alkoxy-3-methyl-butyl}-1H [1,2,4]triazole compounds” (BASF SE, priority 2011, dated 2016)

Key:
Septoria tritici = experiment: Activity against leaf blotch on wheat caused by Septoria tritici (Septtr), microtest; assay type: cell-based; conditions: relative growth vs compound-free control (100%), 405 nm, 7 days after inoculation
Phakopsora pachyrhizi = experiment: Protective control of soy bean rust on soy beans (Phakpa P2), green house; assay type: in vivo, Phakopsora pachyrhizi on soy bean; conditions: 16 ppm spray, inoculated 2 days after treatment, % diseased leaf area, untreated control 80

| SMILES | Growth (%) at 0.000125 ppm Septtr (Septoria tritici) [%] | Disease (%) at 16 ppm Phakpa P2 (Phakopsora pachyrhizi) [%] |
| --- | --- | --- |
| COC(C)(Cn1cncn1)c1ccc(Oc2ccc(Cl)cc2)cc1Cl (stereo not shown) [EP 0126430] | 63 | 60 |
| CCC(Cn1cncn1)(OC)c1ccc(Oc2ccc(Cl)cc2)cc1Cl (stereo not shown) [U.S. Pat. No. 4,940,720] | 53 | 60 |
